Data taken from ChEMBL document CHEMBL4118143, “Discovery of dimethyl pent-4-ynoic acid derivatives, as potent and orally bioavailable DGAT1 inhibitors that suppress body weight in diet-induced mouse obesity model” (Bioorg Med Chem Lett, 2018).
Converted amounts (≈) assume the structure as drawn. Blank lines part the entries; values can stand above or below the compound they belong to. The source made the active and inactive calls. The calls are words filed in the database; no cut-off is given here.

Experiments:
[1] = molecular target: T1, Diacylglycerol O-acyltransferase 1 (Mus musculus, UniProt Q9Z2A7); test: Inhibition of mouse DGAT1 expressed in insect cell membranes using diacylglycerol/[14C]-oleoyl-CoA as substrate preincubated for 10 mins followed by [14C]-oleoyl-CoA addition measured after 15 mins by scintillation counting method
T1 sequence (Q9Z2A7 whole entry): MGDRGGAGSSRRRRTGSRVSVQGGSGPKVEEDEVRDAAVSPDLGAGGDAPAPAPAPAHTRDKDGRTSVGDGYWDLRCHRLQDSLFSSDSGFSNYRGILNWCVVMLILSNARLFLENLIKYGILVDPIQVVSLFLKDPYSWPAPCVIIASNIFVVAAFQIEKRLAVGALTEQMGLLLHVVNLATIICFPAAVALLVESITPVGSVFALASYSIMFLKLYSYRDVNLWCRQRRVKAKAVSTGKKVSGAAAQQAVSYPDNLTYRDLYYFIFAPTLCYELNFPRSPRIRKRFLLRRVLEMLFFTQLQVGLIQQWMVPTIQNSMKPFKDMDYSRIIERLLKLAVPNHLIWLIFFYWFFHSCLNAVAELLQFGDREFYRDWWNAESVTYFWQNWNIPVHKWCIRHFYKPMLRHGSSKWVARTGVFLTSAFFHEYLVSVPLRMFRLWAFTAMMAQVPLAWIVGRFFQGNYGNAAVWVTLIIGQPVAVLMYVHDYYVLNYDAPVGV

[2] = Oral bioavailability in Sprague-Dawley rat at 10 mg/kg; assay type: ADME, organism-based; conditions: in vivo
[3] = Tmax in Sprague-Dawley rat at 10 mg/kg, po; assay type: ADME, organism-based; conditions: in vivo
[4] = Volume of distribution at steady state in Sprague-Dawley rat at 0.5 mg/kg, iv; assay type: ADME, organism-based; conditions: in vivo, read-out: Vdss
[5] = AUC in Sprague-Dawley rat at 10 mg/kg, po; assay type: ADME, organism-based; conditions: in vivo
[6] = Cmax in Sprague-Dawley rat at 10 mg/kg, po; assay type: ADME, organism-based; design: dose 10 mg/kg, route oral; conditions: in vivo
[7] = Clearance in Sprague-Dawley rat at 0.5 mg/kg, iv; assay type: ADME, organism-based; conditions: in vivo
[8] = molecular target: T2, Diacylglycerol O-acyltransferase 2 (Homo sapiens, UniProt Q96PD7); test: Inhibition of human DGAT2 expressed in insect cell membranes using diacylglycerol/[14C]-oleoyl-CoA as substrate preincubated for 10 mins followed by [14C]-oleoyl-CoA addition measured after 15 mins by scintillation counting method
T2 sequence (Q96PD7 whole entry): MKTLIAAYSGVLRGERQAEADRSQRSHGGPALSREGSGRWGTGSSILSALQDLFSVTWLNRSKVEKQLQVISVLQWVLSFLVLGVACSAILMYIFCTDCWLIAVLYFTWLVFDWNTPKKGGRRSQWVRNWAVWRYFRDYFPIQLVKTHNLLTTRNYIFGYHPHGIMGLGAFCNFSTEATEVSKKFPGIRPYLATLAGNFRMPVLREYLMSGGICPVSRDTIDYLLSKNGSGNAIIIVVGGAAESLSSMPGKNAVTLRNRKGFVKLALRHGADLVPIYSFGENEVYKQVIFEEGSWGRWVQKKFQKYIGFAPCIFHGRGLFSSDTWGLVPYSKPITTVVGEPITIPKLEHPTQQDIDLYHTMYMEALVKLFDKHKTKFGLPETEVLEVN

[9] = tested on: Mus musculus; test: Antiobesity activity in diet-induced obesity C57BL/6 mouse model assessed as reduction in body weight at 10 mg/kg administered via oral gavage as bid for 7 days; assay type: functional, organism-based
[10] = molecular target: T3, Cytochrome P450 1A2 (Homo sapiens, UniProt P05177); test: Inhibition of CYP1A2 (unknown origin); assay type: ADME
T3 sequence (P05177 whole entry): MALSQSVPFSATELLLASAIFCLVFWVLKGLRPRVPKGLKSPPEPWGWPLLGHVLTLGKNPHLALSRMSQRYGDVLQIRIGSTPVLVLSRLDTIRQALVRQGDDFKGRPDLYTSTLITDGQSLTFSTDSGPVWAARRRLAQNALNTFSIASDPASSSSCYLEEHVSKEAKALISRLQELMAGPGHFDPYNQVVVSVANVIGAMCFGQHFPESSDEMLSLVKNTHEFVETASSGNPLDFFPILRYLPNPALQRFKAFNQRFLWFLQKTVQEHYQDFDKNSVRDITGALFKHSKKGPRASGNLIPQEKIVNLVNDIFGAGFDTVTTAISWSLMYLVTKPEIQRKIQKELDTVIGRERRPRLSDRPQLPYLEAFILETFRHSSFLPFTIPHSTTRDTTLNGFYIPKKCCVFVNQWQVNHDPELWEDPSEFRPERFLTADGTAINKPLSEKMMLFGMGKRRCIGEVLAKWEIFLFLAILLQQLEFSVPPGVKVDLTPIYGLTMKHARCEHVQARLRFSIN

[11] = molecular target: Cytochrome P450 2C19 (Homo sapiens, UniProt P33261); test: Inhibition of CYP2C19 (unknown origin); assay type: ADME
Chain of Cytochrome P450 2C19 (P33261 whole entry): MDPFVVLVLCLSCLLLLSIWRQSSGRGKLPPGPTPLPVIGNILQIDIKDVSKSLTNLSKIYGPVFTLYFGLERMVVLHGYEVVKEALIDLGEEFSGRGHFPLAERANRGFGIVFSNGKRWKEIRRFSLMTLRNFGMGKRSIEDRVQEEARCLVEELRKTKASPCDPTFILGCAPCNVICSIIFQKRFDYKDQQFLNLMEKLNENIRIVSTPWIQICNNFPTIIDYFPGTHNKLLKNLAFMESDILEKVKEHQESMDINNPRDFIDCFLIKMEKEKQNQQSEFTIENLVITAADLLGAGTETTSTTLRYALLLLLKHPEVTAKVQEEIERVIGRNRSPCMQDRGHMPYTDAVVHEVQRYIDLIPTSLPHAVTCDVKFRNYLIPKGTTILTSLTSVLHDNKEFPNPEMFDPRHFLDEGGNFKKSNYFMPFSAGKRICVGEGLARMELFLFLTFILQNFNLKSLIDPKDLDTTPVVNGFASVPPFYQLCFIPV

[12] = molecular target: T4, Diacylglycerol O-acyltransferase 1 (Homo sapiens, UniProt O75907); test: Inhibition of DGAT1 in human HEK293 cells using [13C18]oleic acid as substrate assessed as decrease in triacylglycerol synthesis preincubated for 15 mins followed by [13C18]oleic acid addition measured after 2 hrs by LC/MS/MS analysis; assay type: cell-based
T4 sequence (O75907 whole entry): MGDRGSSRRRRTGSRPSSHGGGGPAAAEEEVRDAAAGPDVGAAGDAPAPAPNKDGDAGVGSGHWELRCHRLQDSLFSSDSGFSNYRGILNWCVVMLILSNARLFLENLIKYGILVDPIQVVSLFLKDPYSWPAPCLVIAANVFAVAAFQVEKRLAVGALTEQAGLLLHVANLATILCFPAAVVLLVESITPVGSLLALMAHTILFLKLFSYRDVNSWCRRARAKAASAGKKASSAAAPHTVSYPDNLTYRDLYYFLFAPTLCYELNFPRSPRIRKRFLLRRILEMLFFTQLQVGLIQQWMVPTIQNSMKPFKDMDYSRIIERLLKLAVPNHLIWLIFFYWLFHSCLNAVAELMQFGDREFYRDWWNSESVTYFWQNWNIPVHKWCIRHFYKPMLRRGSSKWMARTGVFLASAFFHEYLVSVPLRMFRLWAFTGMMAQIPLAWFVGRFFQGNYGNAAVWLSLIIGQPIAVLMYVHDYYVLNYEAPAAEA

[13] = Metabolic stability in human liver microsomes assessed as parent compound remaining measured at 60 mins; assay type: ADME, microsome; conditions: read-out: Stability
[14] = tested on: Mus musculus; test: Inhibition of corn oil-induced plasma triacylglycerol excursion in CD1 mouse at 0.3 to 1 mg/kg administered via oral gavage 30 mins prior to corn oil challenge measured at 2 hrs by lipid tolerance test; assay type: functional, organism-based
[15] = molecular target: Cytochrome P450 2D6 (Homo sapiens, UniProt P10635); test: Inhibition of CYP2D6 (unknown origin); assay type: ADME
Chain of Cytochrome P450 2D6 (P10635 whole entry): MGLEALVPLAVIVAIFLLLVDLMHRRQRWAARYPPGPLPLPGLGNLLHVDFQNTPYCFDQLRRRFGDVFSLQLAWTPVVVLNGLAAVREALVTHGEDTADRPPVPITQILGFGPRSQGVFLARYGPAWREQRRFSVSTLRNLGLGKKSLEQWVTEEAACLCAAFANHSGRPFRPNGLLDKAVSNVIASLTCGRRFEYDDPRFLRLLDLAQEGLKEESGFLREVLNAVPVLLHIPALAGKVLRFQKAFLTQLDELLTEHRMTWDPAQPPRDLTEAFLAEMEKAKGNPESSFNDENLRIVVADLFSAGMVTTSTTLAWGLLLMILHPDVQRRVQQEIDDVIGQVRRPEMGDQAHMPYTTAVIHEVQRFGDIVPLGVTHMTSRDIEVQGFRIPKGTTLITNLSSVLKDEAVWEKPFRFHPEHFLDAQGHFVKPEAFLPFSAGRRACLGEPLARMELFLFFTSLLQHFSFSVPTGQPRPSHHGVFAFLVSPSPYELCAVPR

[16] = Intrinsic clearance in mouse liver microsomes; assay type: ADME, microsome; conditions: read-out: CLH
[17] = Metabolic stability in mouse liver microsomes assessed as parent compound remaining measured at 60 mins; assay type: ADME, microsome; conditions: read-out: Stability
[18] = Intrinsic clearance in human liver microsomes; assay type: ADME, microsome; conditions: read-out: CLH
[19] = Oral bioavailability in CD1 mouse at 10 mg/kg; assay type: ADME, organism-based; conditions: in vivo
[20] = tested on: Mus musculus; test: Antiobesity activity in diet-induced obesity C57BL/6 mouse model assessed as reduction in cumulative food intake at 10 mg/kg administered via oral gavage as bid for 7 days relative to vehicle-treated control; assay type: functional; design: scale not given: the % may be the effect or the level left
[21] = Protein binding in human plasma; assay type: ADME, cell-free; conditions: read-out: PPB (converted)
[22] = Tmax in CD1 mouse at 10 mg/kg, po; assay type: ADME, organism-based; conditions: in vivo
[23] = molecular target: Cytochrome P450 3A4 (Homo sapiens, UniProt P08684); test: Inhibition of CYP3A4 (unknown origin); assay type: ADME
Chain of Cytochrome P450 3A4 (P08684 whole entry): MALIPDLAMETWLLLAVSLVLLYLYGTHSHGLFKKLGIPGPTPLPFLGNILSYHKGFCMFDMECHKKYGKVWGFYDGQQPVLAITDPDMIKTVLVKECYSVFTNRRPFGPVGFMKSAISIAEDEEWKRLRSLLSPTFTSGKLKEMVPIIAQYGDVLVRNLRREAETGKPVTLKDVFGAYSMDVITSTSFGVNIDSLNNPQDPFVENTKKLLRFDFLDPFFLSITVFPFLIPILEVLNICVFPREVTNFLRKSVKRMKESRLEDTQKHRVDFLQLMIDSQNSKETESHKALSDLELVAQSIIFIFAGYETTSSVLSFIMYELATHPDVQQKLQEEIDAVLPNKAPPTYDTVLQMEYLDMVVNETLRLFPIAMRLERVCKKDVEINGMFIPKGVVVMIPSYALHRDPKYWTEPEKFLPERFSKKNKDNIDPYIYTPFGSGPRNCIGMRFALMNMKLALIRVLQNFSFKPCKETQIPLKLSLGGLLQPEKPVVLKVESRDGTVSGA

[24] = Solubility of the compound at pH 7.4; assay type: physicochemical; conditions: buffer
[25] = Clearance in CD1 mouse at 0.5 mg/kg, iv; assay type: ADME, organism-based; conditions: in vivo
[26] = AUC in CD1 mouse at 10 mg/kg, po; assay type: ADME, organism-based; conditions: in vivo
[27] = Volume of distribution at steady state in CD1 mouse at 0.5 mg/kg, iv; assay type: ADME, organism-based; conditions: in vivo, read-out: Vdss
[28] = molecular target: T4, Diacylglycerol O-acyltransferase 1; test: Inhibition of human DGAT1 expressed in insect cell membranes using diacylglycerol/[14C]-oleoyl-CoA as substrate preincubated for 10 mins followed by [14C]-oleoyl-CoA addition measured after 15 mins by scintillation counting method
[29] = Cmax in CD1 mouse at 10 mg/kg, po; assay type: ADME, organism-based; design: dose 10 mg/kg, route oral; conditions: in vivo
[30] = tested on: Mus musculus; test: Hepatotoxicity in diet-induced obesity C57BL/6 mouse model at 10 mg/kg administered via oral gavage as bid for 7 days; assay type: toxicity, organism-based; conditions: in vivo, 168 h
[31] = molecular target: Cytochrome P450 2C9 (Homo sapiens, UniProt P11712); test: Inhibition of CYP2C9 (unknown origin); assay type: ADME
Chain of Cytochrome P450 2C9 (P11712 whole entry): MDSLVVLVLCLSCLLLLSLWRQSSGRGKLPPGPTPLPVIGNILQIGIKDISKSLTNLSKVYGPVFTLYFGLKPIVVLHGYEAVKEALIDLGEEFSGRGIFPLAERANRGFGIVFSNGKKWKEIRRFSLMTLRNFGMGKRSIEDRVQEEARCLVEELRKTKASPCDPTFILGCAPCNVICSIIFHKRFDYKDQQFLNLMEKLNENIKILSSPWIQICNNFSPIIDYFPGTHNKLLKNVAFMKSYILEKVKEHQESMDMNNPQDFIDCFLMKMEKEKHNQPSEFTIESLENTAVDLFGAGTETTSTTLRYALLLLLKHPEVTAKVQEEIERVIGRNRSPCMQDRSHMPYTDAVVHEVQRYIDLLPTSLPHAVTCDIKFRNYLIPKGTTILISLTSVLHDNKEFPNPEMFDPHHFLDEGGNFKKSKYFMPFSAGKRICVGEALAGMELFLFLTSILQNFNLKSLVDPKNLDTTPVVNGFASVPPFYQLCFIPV

- IC50 [1]: 11 nM
SMILES: Cc1cc(N2CCOc3ncnc(N)c3C2=O)cc(F)c1C#CC(C)(C)CC(=O)O

- IC50 [1]: 3760 nM
SMILES: Cc1cc(C#CC(C)(C)CC(=O)O)ccc1N1CCOc2ncnc(N)c2C1=O

- IC50 [1]: 12 nM
SMILES: CCc1cc(N2CCOc3ncnc(N)c3C2=O)cc(CC)c1C#CC(C)(C)CC(=O)O

- IC50 [1]: 26 nM
SMILES: CC(C)(C#Cc1ccc(N2CCOc3ncnc(N)c3C2=O)cc1Cl)CC(=O)O

- IC50 [1]: 24 nM
SMILES: CC(C)(C#Cc1ccc(N2CCOc3ncnc(N)c3C2=O)cc1C(F)(F)F)CC(=O)O

- IC50 [1]: 10 nM
SMILES: CC(C)(C#Cc1c(Cl)cc(N2CCOc3ncnc(N)c3C2=O)cc1Cl)CC(=O)O

- IC50 [1]: 728 nM
SMILES: COc1cc(N2CCOc3ncnc(N)c3C2=O)ccc1C#CC(C)(C)CC(=O)O

- IC50 [1]: 58 nM
SMILES: CC(C)(C#Cc1ccc(N2CCOc3ncnc(N)c3C2=O)cc1F)CC(=O)O

- bioavailability [2]: 42%
- Tmax [3]: 30 min
- Vd [4]: 1.06 L/kg
- AUC [5]: 4100 ng·h/mL
- Cmax [6]: 2160 ng/mL
- clearance [7]: 14.8 mL/min/kg
SMILES: CC(C)(C#Cc1ccc(N2CCOc3ncnc(N)c3C2=O)cc1)CC(=O)O

- IC50 [1]: 96 nM
SMILES: COc1cc(N2CCOc3ncnc(N)c3C2=O)cc(C)c1C#CC(C)(C)CC(=O)O

- IC50 [1]: 12 nM
SMILES: CCc1cc(N2CCOc3ncnc(N)c3C2=O)cc(C)c1C#CC(C)(C)CC(=O)O

- IC50 [1]: 92 nM
SMILES: CC(C)(C#Cc1ccc(N2CCOc3ncnc(N)c3C2=O)cc1OC(F)(F)F)CC(=O)O

- IC50 [1]: 14 nM
SMILES: Cc1cc(N2CCOc3ncnc(N)c3C2=O)cc(Cl)c1C#CC(C)(C)CC(=O)O

- IC50 [1]: 682 nM
SMILES: CCc1cc(N2CCOc3ncnc(N)c3C2=O)ccc1C#CC(C)(C)CC(=O)O

- IC50 [8]: > 50000 nM
- IC50 [10]: 27600 nM
- bioavailability [2]: 70%
- IC50 [11]: 29700 nM
- EC50 [12]: 26 nM
- remaining at 1 h [13]: 97.6%
- Tmax [3]: 30 min
- IC50 [15]: 27200 nM
- Vd [4]: 1.12 L/kg
- AUC [5]: 21000 ng·h/mL
- CLint scaled [16]: < 38 mL/min/kg
- remaining at 1 h [17]: 97.9%
- Cmax [6]: 8700 ng/mL
- clearance [7]: 4.76 mL/min/kg
- CLint scaled [18]: < 9.5 mL/min/kg
- IC50 [1]: 12 nM
- bioavailability [19]: 31%
- fraction unbound [21]: 0.139
- Tmax [22]: 30 min
- IC50 [23]: 45500 nM
- solubility [24]: 110 µM (≈ 44.9 µg/mL)
- clearance [25]: 39.3 mL/min/kg
- AUC [26]: 1250 ng·h/mL
- Vd [27]: 2.44 L/kg
- IC50 [28]: 21 to 28 nM
- Cmax [29]: 521 ng/mL
- IC50 [31]: > 100000 nM
SMILES: Cc1cc(N2CCOc3ncnc(N)c3C2=O)cc(C)c1C#CC(C)(C)CC(=O)O
- Activity [9]: Active
- inhibition [14]: Active
- Activity [20]: 11%
- Activity [30]: Non-Toxic
